Experimental data reported in patent US6989448B2, “Heteroaryl alkyl alpha substituted peptidylamine calcium channel blockers” (priority 1998, dated 2006).
Counter-ions that a name gives are not always drawn. Each block holds one molecule with its values, some of them ahead of it.

Tests used:
N-type Ca2+ channel = target: T1, N-type Ca2+ channel (Homo sapiens, UniProt Q00975); experiment: Measurement of N-type Ca2+ channel blocking potencies in IMR-32 cells using the fluorescent Ca2+ indicator Indo-1; type: cell-based; conditions: for IMR-32 % of Blockade @ μM: 5 μM nitrendipine; for IC50: K+-stimulated Ca2+ flux, 5 μM nitrendipine to block L-type channels, some values marked (est.)
T1 construct: host or cells: IMR-32 cells, differentiated with dibutyryl cAMP and bromodeoxyuridine
T1 sequence (Q00975 whole entry): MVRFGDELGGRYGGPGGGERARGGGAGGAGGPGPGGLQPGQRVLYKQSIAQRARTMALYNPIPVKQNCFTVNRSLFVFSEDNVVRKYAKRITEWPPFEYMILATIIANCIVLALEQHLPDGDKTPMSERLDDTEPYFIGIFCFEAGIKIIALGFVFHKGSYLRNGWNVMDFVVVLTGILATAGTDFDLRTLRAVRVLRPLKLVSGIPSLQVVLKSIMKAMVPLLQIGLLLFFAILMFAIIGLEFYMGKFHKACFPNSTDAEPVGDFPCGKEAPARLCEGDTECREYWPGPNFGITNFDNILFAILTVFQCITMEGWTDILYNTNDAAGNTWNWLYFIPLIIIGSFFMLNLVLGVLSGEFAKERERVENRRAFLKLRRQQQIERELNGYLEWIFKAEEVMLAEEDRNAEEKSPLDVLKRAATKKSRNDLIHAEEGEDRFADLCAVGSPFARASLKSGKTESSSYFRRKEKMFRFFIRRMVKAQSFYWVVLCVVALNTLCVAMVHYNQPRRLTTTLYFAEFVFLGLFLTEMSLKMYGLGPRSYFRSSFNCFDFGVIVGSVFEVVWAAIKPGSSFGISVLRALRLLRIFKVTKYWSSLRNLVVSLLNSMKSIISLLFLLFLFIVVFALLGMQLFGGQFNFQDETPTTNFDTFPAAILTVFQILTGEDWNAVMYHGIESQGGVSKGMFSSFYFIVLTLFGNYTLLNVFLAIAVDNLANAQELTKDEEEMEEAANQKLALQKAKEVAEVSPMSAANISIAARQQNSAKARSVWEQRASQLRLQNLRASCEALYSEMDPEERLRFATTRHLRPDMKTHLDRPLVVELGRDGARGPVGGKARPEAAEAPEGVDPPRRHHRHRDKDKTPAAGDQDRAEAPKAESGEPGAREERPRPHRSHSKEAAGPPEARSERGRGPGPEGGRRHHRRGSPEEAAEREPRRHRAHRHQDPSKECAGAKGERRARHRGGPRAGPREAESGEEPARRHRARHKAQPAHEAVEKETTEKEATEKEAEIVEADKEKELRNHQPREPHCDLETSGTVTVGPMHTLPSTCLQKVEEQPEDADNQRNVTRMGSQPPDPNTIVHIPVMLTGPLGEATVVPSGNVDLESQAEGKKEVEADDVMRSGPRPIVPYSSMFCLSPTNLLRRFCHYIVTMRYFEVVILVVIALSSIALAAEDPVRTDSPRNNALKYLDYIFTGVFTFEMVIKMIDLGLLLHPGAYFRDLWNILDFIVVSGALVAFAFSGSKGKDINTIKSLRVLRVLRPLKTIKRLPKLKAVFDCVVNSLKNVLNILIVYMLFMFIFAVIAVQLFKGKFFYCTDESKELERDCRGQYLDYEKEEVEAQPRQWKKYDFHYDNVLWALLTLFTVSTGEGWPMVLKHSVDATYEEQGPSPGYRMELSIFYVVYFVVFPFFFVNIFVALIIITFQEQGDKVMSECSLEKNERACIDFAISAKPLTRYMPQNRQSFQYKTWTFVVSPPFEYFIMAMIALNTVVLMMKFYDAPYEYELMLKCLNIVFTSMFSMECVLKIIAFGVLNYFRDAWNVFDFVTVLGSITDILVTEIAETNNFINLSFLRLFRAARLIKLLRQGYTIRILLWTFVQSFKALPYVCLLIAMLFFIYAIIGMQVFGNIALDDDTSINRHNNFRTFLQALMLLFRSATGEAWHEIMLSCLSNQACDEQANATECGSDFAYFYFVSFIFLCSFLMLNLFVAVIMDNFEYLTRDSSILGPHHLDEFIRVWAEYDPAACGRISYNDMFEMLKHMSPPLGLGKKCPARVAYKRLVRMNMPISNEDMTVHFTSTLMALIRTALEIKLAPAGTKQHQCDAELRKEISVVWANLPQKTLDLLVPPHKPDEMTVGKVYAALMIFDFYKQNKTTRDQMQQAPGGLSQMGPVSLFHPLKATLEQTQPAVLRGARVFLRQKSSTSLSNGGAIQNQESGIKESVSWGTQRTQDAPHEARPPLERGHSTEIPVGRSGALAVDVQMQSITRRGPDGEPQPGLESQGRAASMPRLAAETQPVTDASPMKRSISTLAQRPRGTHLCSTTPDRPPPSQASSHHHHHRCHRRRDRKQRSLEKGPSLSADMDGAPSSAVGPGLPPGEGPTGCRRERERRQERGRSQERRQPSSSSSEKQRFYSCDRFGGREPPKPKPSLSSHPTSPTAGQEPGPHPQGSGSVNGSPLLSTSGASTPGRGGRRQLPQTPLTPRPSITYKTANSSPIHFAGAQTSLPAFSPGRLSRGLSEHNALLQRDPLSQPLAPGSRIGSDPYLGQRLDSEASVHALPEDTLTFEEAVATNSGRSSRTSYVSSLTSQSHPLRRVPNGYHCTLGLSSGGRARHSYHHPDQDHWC
T1 sequence (P54289 25-956 partner limits assumed): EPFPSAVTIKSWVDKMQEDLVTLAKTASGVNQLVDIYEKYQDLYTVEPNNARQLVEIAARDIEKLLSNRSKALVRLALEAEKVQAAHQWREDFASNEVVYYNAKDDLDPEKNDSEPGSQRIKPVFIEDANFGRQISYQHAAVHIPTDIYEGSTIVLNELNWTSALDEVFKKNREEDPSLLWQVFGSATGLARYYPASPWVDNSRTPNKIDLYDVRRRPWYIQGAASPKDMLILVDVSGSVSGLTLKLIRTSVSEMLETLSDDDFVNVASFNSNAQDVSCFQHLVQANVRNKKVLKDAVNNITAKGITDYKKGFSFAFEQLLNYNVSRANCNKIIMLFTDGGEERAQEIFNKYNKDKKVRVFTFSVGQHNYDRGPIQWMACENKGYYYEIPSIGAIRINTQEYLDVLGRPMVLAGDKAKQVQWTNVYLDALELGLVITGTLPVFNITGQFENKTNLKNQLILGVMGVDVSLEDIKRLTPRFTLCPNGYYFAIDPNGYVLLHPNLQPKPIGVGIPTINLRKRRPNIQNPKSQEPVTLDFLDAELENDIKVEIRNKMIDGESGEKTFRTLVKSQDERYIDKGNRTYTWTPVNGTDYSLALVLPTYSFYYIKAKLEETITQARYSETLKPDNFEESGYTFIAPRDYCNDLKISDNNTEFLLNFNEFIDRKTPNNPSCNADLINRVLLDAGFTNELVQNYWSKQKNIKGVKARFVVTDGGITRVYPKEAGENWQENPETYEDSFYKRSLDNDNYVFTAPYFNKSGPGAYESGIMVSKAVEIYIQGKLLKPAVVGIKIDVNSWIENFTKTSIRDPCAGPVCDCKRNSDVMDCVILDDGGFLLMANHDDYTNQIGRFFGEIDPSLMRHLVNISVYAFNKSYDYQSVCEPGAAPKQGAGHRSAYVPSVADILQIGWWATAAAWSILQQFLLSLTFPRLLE
T1 sequence (P54289 957-1103 partner limits assumed): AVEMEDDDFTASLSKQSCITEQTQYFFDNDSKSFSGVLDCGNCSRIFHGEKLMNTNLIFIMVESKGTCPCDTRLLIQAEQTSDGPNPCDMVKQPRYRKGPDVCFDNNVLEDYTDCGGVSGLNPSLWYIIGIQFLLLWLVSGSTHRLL
T1 sequence (P54284 whole entry partner): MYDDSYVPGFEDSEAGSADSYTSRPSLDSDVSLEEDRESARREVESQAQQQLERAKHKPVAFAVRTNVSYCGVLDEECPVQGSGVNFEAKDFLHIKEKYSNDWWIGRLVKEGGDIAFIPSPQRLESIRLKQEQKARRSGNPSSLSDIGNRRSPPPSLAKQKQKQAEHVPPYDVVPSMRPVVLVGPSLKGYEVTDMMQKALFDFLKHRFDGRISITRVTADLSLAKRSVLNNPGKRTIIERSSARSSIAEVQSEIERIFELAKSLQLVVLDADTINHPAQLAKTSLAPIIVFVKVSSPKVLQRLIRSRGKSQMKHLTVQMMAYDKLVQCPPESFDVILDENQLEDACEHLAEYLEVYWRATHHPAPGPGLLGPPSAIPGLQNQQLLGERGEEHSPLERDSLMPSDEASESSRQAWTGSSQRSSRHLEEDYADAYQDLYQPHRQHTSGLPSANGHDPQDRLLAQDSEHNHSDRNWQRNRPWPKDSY
Experimental: Measurement of N-type Ca^2+ Channel Blocking Potencies of Compounds in IMR-32 Cells Using the Fluorescent Ca^2+ Indicator Indo-1
IMR-32 cells are a human tumoral cell line of neural origin. […] Calcium flux into these cells may be induced by stimulation with elevated potassium concentrations. The L-channel component of calcium flux may be blocked by adding 5 μM nitrendipine. The remaining component of calcium entry into the IMR-32 cells is due to calcium flux through N-type calcium channels. Intracellular calcium concentrations are measured using the fluorescent calcium indicator Indo-1. The effect of drug concentration on calcium uptake is studied.
The IMR-32 cell line was obtained from the American Type Culture Collection (Rockville, Md.). Cells were grown in Eagle's Minimum Essential Medium with Earle's salts supplemented with 10% fetal bovine serum, 2 mM L-Gln and antibiotic/antimycotic mixture (Gibco). At approximately 80% confluency, differentiation was induced by the addition of 1 mM dibutyryl cAMP and 2.5 μM bromodeoxyuridine to the medium. After 7 to 13 days of differentiation, cells were detached using 0.5 mM EDTA and loaded with 5 μM Indo-1 acetoxymethyl ester (Molecular Probes, Eugene, Oreg.) at 30° C. for 45 minutes Loaded cells were washed twice, resuspended (˜10^7 cells/mL) in assay buffer (10 mM HEPES/Tris pH 7.4 in Hank's Balanced Salt Solution without bicarbonate or phenol red containing 0.5% bovine serum albumin) and kept on ice until use. Fluorescence measurements were carried out in a Photon Technology International (PTI, South Brunswick, N.J.) Model RF-F3004 spectrofluorometer with dual emission monochromators using excitation at 350 nm and emission at 400 and 490 nm. The instrument was equipped with a thermostated cuvette holder with stirring capabilities, as well as with a computer-controlled pump which allowed for reagent addition during measurement. Instrument control and data collection was done by PTI's OSCAR software running on an IBM compatible computer. Different concentrations of the test compounds (60 μL in dimethyl sulfoxide) were added to 5.94 mL of assay buffer containing approximately 3×10^6 loaded cells, and 5 μM nitrendipine (in 30 μL EtOH) to block L-type Ca^2+ channels. Samples were incubated for 10 minutes at 30° C. and then aliquoted into three 10×10 mm disposable acrylic cuvettes. Emission signals at 400 and 490 nm were acquired from each cuvette at 30° C. for 50 seconds. At 20 seconds after the start of reading, cells were depolarized by the addition of 160 μL of stimulation solution (1 M KCl, 68 mM CaCl2) to the cuvette via the computer-controlled pump. Ratio of dual emission signals (400 nm/490 nm), which is proportional to intracellular Ca^2+ concentration, was plotted against time, and the difference between maximal response after stimulation and basal value (before stimulation) was determined. Values obtained in this way were plotted as a function of drug concentration. IC50 values of test compounds were calculated by fitting a 4-parameter logistic function to the data using the least squares method.

DBA/2 mice = experiment: Audiogenic (sound-induced) seizure test in DBA/2 mice, protection from tonic seizures; type: in vivo; conditions: 30 mg/kg, intravenous, tested 15 or 45 minutes after injection
Experimental: In Vivo Biological Protocol
A compound of the present invention was dissolved in water using 10% (weight/volume) Emulphor (GAF Corp., Wayne, N.J.) surfactant. Substances were administered by intravenous injection into the retro-orbital venous sinus. All testing was performed 15 minutes or 45 minutes after drug injection. All the male mice, 3 to 4 weeks old, were obtained from Jackson Laboratories, Bar Harbour, Me. Immediately before anticonvulsant testing, mice were placed upon a wire mesh, 4 inches square suspended from a steel rod. The square was slowly inverted through 180 degree and mice observed for 30 seconds. Any mouse falling from the wire mesh was scored as ataxia.
Mice were placed into an enclosed acrylic plastic chamber (21 cm height, approximately 30 cm diameter) with a high-frequency speaker (4 cm diameter) in the center of the top lid. An audio signal generator (Protek Model B-810) was used to produce a continuous sinusoidal tone that was swept linearly in frequency between 8 kHz and 16 kHz once each 10 msec. The average sound pressure level (SPL) during stimulation was approximately 100 dB at the floor of the chamber. Mice were placed within the chamber and allowed to acclimatize for 1 minute. DBA/2 mice in the vehicle-treated group responded to the sound stimulus (applied until tonic extension occurred, or for a maximum of 60 sec) with a characteristic seizure sequence consisting of wild running followed by clonic seizures, and later by tonic extension, and finally by respiratory arrest and death in 80% or more of the mice. In vehicle-treated mice, the entire sequence of seizures to respiratory arrest lasts approximately 15 to 20 seconds.
The incidence of all the seizure phases in the drug-treated and vehicle-treated mice was recorded, and the occurrence of tonic seizures were used for calculating anticonvulsant ED50 values by probit analysis. Mice were used only once for testing at each time and dose point.

melting point: 243 to 244 °C
Structure (SMILES): CC(C)(C)NC(=O)[C@H](Cc1ccc(OCc2ccccc2)cc1)NC(=O)[C@H](Cc1cscn1)NC1C=CCCC1 (stereo partly drawn) (as salt: HCl) [Example 6, [S—(R*,R*)]—N-[2-(4-Benzyloxy-phenyl)-1-tert-butylcarbamoyl-ethyl]-2-(cyclohex-2-enylamino)-3-thiazol-4-yl-propionamide]

melting point: 163 to 165 °C
Structure (SMILES): CC(C)(C)NC(=O)[C@H](Cc1ccc(OCc2ccccc2)cc1)NC(=O)[C@H](Cc1c[nH]cn1)NCC1CCCCC1 (as salt: salt) [Example 8, [S—(R*,R*)]—N-[2-(4-Benzyloxy-phenyl)-1-tert-butylcarbamoyl-ethyl]-2-(cyclohexylmethyl-amino)-3-(1H-imidazol-4-yl)-propionamide]

IMR-32 % of Blockade @ μM (N-type Ca2+ channel; @ 1 μM): 79%
IMR-32 % of Blockade @ μM (N-type Ca2+ channel; @ 10 μM): 97%
Structure (SMILES): CC(C)CCN[C@@H](Cc1cscn1)C(=O)NC(Cc1ccc(OCc2ccccc2)cc1)C(=O)NC(C)(C)C (stereo in doubt) [Example 5, [S—(R*,R*)]—N-[2-(4-Benzyloxy-phenyl)-1-tert-butylcarbamoyl-ethyl]-2-(3-methyl-butylamino)-3-thiazol-4-yl-propionamide]
DBA/2 mice % protection (dose) (DBA/2 mice): 100% @ 30 mg/kg

IC50 (N-type Ca2+ channel): 1000 nM
Structure (SMILES): CC(C)(C)NC(=O)[C@H](Cc1ccc(OCc2ccccc2)cc1)NC(=O)[C@H](Cc1cccnc1)NC1C=CCCC1 (stereo partly drawn) [Example 4, [S—(R*,R*)]—N-[2-(4-Benzyloxy-phenyl)-1-tert-butylcarbamoyl-ethyl]-2-(cyclohex-2-enylamino)-3-pyridin-3-yl-propionamide]
DBA/2 mice % protection (dose) (DBA/2 mice): 60% @ 30 mg/kg

IC50 (N-type Ca2+ channel): 1100 nM
Structure (SMILES): CC(C)(C)NC(=O)[C@H](Cc1ccc(OCc2ccccc2)cc1)NC(=O)[C@H](Cc1cscn1)NC1C=CCCC1 (stereo partly drawn) [Example 6, [S—(R*,R*)]—N-[2-(4-Benzyloxy-phenyl)-1-tert-butylcarbamoyl-ethyl]-2-(cyclohex-2-enylamino)-3-thiazol-4-yl-propionamide]

IC50 (N-type Ca2+ channel): 670 nM
Structure (SMILES): CC(C)(C)NC(=O)[C@H](Cc1ccc(OCc2ccccc2)cc1)NC(=O)[C@H](Cc1c[nH]cn1)NCC1CCCCC1 [Example 8, [S—(R*,R*)]—N-[2-(4-Benzyloxy-phenyl)-1-tert-butylcarbamoyl-ethyl]-2-(cyclohexylmethyl-amino)-3-(1H-imidazol-4-yl)-propionamide]

More lines, now with the values behind:

Structure (SMILES): CC(C)(C)NC(=O)[C@H](Cc1ccc(OCc2ccccc2)cc1)NC(=O)[C@H](Cc1ccncc1)NC1C=CCCC1 (stereo partly drawn) (as salt: HCl) [Example 2, [S-(R*,R*)]—N-[2-(4-Benzyloxy-phenyl)-1-tert-butylcarbamoyl-ethyl]-2-(cyclohex-2-enylamino)-3-pyridin-4-yl-propionamide]
melting point: 163 to 164 °C

Structure (SMILES): CC(C)(C)NC(=O)[C@H](Cc1ccc(OCc2ccccc2)cc1)NC(=O)[C@H](Cc1cscn1)NC1CCCCC1 (relative stereo) [Example 7, [S—(R*,R*)]-N-[2-(4-Benzyloxy-phenyl)-1-tert-butylcarbamoyl-ethyl]-2-cyclohexylamino-3-thiazol-4-yl-propionamide]
IMR-32 % of Blockade @ μM (N-type Ca2+ channel; @ 1 μM): 67%
IMR-32 % of Blockade @ μM (N-type Ca2+ channel; @ 10 μM): 95%

Structure (SMILES): CC(C)N[C@@H](Cc1c[nH]cn1)C(=O)N[C@@H](Cc1ccc(OCc2ccccc2)cc1)C(=O)NC(C)(C)C (relative stereo) [Example 9, [S—(R*,R*)]N-[2-(4-Benzyloxy-phenyl)-1-tert-butylcarbamoyl-ethyl]-2-(1-methylethyl-amino)-3-(1H-imidazol-4-yl)-propionamide]
IMR-32 % of Blockade @ μM (N-type Ca2+ channel; @ 1 μM): 11%
IMR-32 % of Blockade @ μM (N-type Ca2+ channel; @ 10 μM): 55%

Structure (SMILES): CC(C)CCN[C@@H](Cc1cccnc1)C(=O)NC(Cc1ccc(OCc2ccccc2)cc1)C(=O)NC(C)(C)C (stereo in doubt) [Example 3, [S-(R*,R*)]—N-[2-(4-Benzyloxy-phenyl)-1-tert-butylcarbamoyl-ethyl]-2-(3-methyl-butylamino)-3-pyridin-3-yl-propionamide]
DBA/2 mice % protection (dose) (DBA/2 mice): 80% @ 30 mg/kg
IC50 (N-type Ca2+ channel): 770 nM

Structure (SMILES): CC(C)CCN[C@@H](Cc1ccncc1)C(=O)N[C@@H](Cc1ccc(OCc2ccccc2)cc1)C(=O)NC(C)(C)C [Example 1, [S—(R*,R*)]—N-[2-(4-Benzyloxy-phenyl)-1-tert-butylcarbamoyl-ethyl]-2-(3-methyl-butylamino)-3-pyridin-4-yl-propionamide]
IC50 (N-type Ca2+ channel): 400 nM

Structure (SMILES): CC(C)(C)NC(=O)[C@H](Cc1ccc(OCc2ccccc2)cc1)NC(=O)[C@H](Cc1ccncc1)NC1C=CCCC1 (stereo partly drawn) [Example 2, [S-(R*,R*)]—N-[2-(4-Benzyloxy-phenyl)-1-tert-butylcarbamoyl-ethyl]-2-(cyclohex-2-enylamino)-3-pyridin-4-yl-propionamide]
IC50 (N-type Ca2+ channel): 1300 nM
